Results as given in ChEMBL document CHEMBL1155738, “Suppressors of cancer cell proliferation from fig (Ficus carica) resin: isolation and structure elucidation” (J Nat Prod, 2001).
The source made the active and inactive calls. The rule behind the calls is not given here.

Test system: Raji
Assay: Cytotoxicity against human Raji cells at 25 to 50 ug/mL after 3 days by MTT assay
Type: functional, cell-based

Q: Which Activity does the source give for `CCCCCCCCCCCCCCCCCC(=O)OC[C@H]1O[C@@H](O[C@H]2CC[C@@]3(C)C(=CC[C@H]4[C@@H]5CC[C@H]([C@H](C)CC[C@H](CC)C(C)C)[C@@]5(C)CC[C@@H]43)C2)[C@H](O)[C@@H](O)[C@@H]1O` here?
A: Active

Q: Which Activity does the source give for `CCCCCCCCCCCCCCCC(=O)OC[C@H]1O[C@@H](O[C@H]2CC[C@@]3(C)C(=CC[C@H]4[C@@H]5CC[C@H]([C@H](C)CC[C@H](CC)C(C)C)[C@@]5(C)CC[C@@H]43)C2)[C@H](O)[C@@H](O)[C@@H]1O` here?
A: Active

Q: How did the Activity turn out when `CCCCC/C=C/C/C=C/CCCCCCCC(=O)OC[C@H]1O[C@@H](O[C@H]2CC[C@@]3(C)C(=CC[C@H]4[C@@H]5CC[C@H]([C@H](C)CC[C@H](CC)C(C)C)[C@@]5(C)CC[C@@H]43)C2)[C@H](O)[C@@H](O)[C@@H]1O` was run?
A: Active
